Source: PMC3853718 (Journal of Translational Medicine, 2013)

Test system: subjects with advanced malignancies
Assay: Phase 1 dose escalation: toxicity, safety and tolerability (DLT, MAD, RP2D, AEs)
Experimental: Subjects continued on treatment until there was disease progression, unacceptable toxicity, or the subject withdrew consent. The trial employed an accelerated titration design [16] starting at a dose of 0.33 mg/m^2 (one-sixth of the highest nontoxic dose in dogs).
the dose was doubled in sequential subjects until a DLT was observed or a subject experienced grade 2 toxicity [16]. In the case of an observed grade 2 toxicity, a second subject was enrolled at the same dose level. If the second subject also experienced a grade 2 toxicity, 2 additional subjects were accrued at that dose level for a total of 4 subjects. […] Each subject was allocated to only a single dose level of drug. Dose delay or modification was permitted based on laboratory and clinical assessment performed on the day of treatment.
Dose-limiting toxicities were determined during the first cycle for each dose level. A DLT was defined as any grade 3 or 4 hematologic toxicity lasting for at least 1 week, or as any grade 3 or 4 nonhematologic toxicity. […] Normal alkaline phosphatase level (< grade 1) at screening that rose to greater than or equal to grade 3; grade 1 or 2 alkaline phosphatase level at screening that rose to grade 4; grade 1 or 2 aspartate aminotransferase (AST) and/or alanine aminotransferase (ALT) levels at screening that doubled from baseline to become greater than or equal to grade 3; and any other abnormal nonhematology laboratory value greater than or equal to grade 3 that required medical intervention to treat, led to hospitalization, or persisted for at least 1 week were also considered DLTs.
Adverse events were graded based on the National Cancer Institute Common Terminology Criteria for Adverse Events (NCI CTCAE version 3.0) and were coded using the Medical Dictionary for Regulatory Activities (MedDRA version 13.0).

Q: Which “TEAE: Hyperglycemia” value (10 mg/m^2 (n = 3), Grade 3–4) does the source give for `CCc1cnn2c(NCc3ccc[n+]([O-])c3)cc(N3CCCC[C@H]3CCO)nc12` [dinaciclib] here?
A: 1 (33) n (%)

Q: What about the “TEAE: Hyperuricemia” value (10 mg/m^2 (n = 3), Grade 3–4) of the same molecule?
A: 0 n (%)

Q: What about the “TEAE: Hypokalemia” value (10 mg/m^2 (n = 3), Grade 3–4) of the same molecule?
A: 0 n (%)

Q: And the “TEAE: Hypophosphatemia” value (10 mg/m^2 (n = 3), Grade 3–4)?
A: 0 n (%)

Q: And the “TEAE: Increased ALP” value (10 mg/m^2 (n = 3), Grade 3–4)?
A: 0 n (%)

Q: And the “TEAE: Increased ALT” value (10 mg/m^2 (n = 3), Grade 3–4)?
A: 0 n (%)

Q: What about the “TEAE: Increased AST” value (10 mg/m^2 (n = 3), Grade 3–4) of the same molecule?
A: 0 n (%)

Q: And the “TEAE: Nausea” value (10 mg/m^2 (n = 3), Grade 3–4)?
A: 0 n (%)

Q: What about the “TEAE: Neutropenia” value (10 mg/m^2 (n = 3), Grade 3–4) of the same molecule?
A: 1 (33) n (%)

Q: And the “TEAE: Peripheral edema” value (10 mg/m^2 (n = 3), Grade 3–4)?
A: 0 n (%)

Q: What about the “TEAE: Pyrexia” value (10 mg/m^2 (n = 3), Grade 3–4) of the same molecule?
A: 0 n (%)

Q: And the “TEAE: Subjects with any AE” value (10 mg/m^2 (n = 3), Grade 3–4)?
A: 1 (33) n (%)

Q: And the “TEAE: Urinary tract infection” value (10 mg/m^2 (n = 3), Grade 3–4)?
A: 0 n (%)

Q: And the “TEAE: Vomiting” value (10 mg/m^2 (n = 3), Grade 3–4)?
A: 0 n (%)

Q: And the “TEAE: Weight decreased” value (10 mg/m^2 (n = 3), Grade 3–4)?
A: 0 n (%)

Q: What about the “TEAE: Abdominal distension” value (12 mg/m^2 (n = 11), All grades) of the same molecule?
A: 1 (9) n (%)

Q: And the “TEAE: Abdominal pain” value (12 mg/m^2 (n = 11), All grades)?
A: 0 n (%)

Q: And the “TEAE: Anemia” value (12 mg/m^2 (n = 11), All grades)?
A: 6 (55) n (%)

Q: And the “TEAE: Asthenia” value (12 mg/m^2 (n = 11), All grades)?
A: 4 (36) n (%)

Q: What about the “TEAE: Back pain” value (12 mg/m^2 (n = 11), All grades) of the same molecule?
A: 1 (9) n (%)

Q: What about the “TEAE: Constipation” value (12 mg/m^2 (n = 11), All grades) of the same molecule?
A: 2 (18) n (%)

Q: And the “TEAE: Cough” value (12 mg/m^2 (n = 11), All grades)?
A: 2 (18) n (%)

Q: What about the “TEAE: Decreased appetite” value (12 mg/m^2 (n = 11), All grades) of the same molecule?
A: 2 (18) n (%)

Q: What about the “TEAE: Dehydration” value (12 mg/m^2 (n = 11), All grades) of the same molecule?
A: 0 n (%)

Q: What about the “TEAE: Diarrhea” value (12 mg/m^2 (n = 11), All grades) of the same molecule?
A: 1 (9) n (%)

Q: And the “TEAE: Dizziness” value (12 mg/m^2 (n = 11), All grades)?
A: 1 (9) n (%)

Q: What about the “TEAE: Dyspnea” value (12 mg/m^2 (n = 11), All grades) of the same molecule?
A: 0 n (%)

Q: And the “TEAE: Fatigue” value (12 mg/m^2 (n = 11), All grades)?
A: 4 (36) n (%)

Q: What about the “TEAE: Flatulence” value (12 mg/m^2 (n = 11), All grades) of the same molecule?
A: 1 (9) n (%)

Q: And the “TEAE: Hyperbilirubinemia” value (12 mg/m^2 (n = 11), All grades)?
A: 3 (27) n (%)

Q: What about the “TEAE: Hyperglycemia” value (12 mg/m^2 (n = 11), All grades) of the same molecule?
A: 4 (36) n (%)

Q: And the “TEAE: Hyperuricemia” value (12 mg/m^2 (n = 11), All grades)?
A: 3 (27) n (%)

Q: And the “TEAE: Hypokalemia” value (12 mg/m^2 (n = 11), All grades)?
A: 2 (18) n (%)

Q: What about the “TEAE: Hypophosphatemia” value (12 mg/m^2 (n = 11), All grades) of the same molecule?
A: 2 (18) n (%)

Q: What about the “TEAE: Increased ALP” value (12 mg/m^2 (n = 11), All grades) of the same molecule?
A: 4 (36) n (%)

Q: And the “TEAE: Increased ALT” value (12 mg/m^2 (n = 11), All grades)?
A: 3 (27) n (%)

Q: What about the “TEAE: Increased AST” value (12 mg/m^2 (n = 11), All grades) of the same molecule?
A: 4 (36) n (%)

Q: And the “TEAE: Nausea” value (12 mg/m^2 (n = 11), All grades)?
A: 3 (27) n (%)

Q: And the “TEAE: Neutropenia” value (12 mg/m^2 (n = 11), All grades)?
A: 4 (36) n (%)

Q: What about the “TEAE: Peripheral edema” value (12 mg/m^2 (n = 11), All grades) of the same molecule?
A: 3 (27) n (%)

Q: And the “TEAE: Pyrexia” value (12 mg/m^2 (n = 11), All grades)?
A: 4 (36) n (%)

Q: What about the “TEAE: Subjects with any AE” value (12 mg/m^2 (n = 11), All grades) of the same molecule?
A: 11 (100) n (%)

Q: What about the “TEAE: Urinary tract infection” value (12 mg/m^2 (n = 11), All grades) of the same molecule?
A: 4 (36) n (%)

Q: What about the “TEAE: Vomiting” value (12 mg/m^2 (n = 11), All grades) of the same molecule?
A: 3 (27) n (%)

Q: What about the “TEAE: Weight decreased” value (12 mg/m^2 (n = 11), All grades) of the same molecule?
A: 0 n (%)

Q: And the “TEAE: Abdominal distension” value (12 mg/m^2 (n = 11), Grade 3–4)?
A: 0 n (%)

Q: And the “TEAE: Abdominal pain” value (12 mg/m^2 (n = 11), Grade 3–4)?
A: 0 n (%)

Q: What about the “TEAE: Anemia” value (12 mg/m^2 (n = 11), Grade 3–4) of the same molecule?
A: 1 (9) n (%)

Q: And the “TEAE: Asthenia” value (12 mg/m^2 (n = 11), Grade 3–4)?
A: 0 n (%)

Q: And the “TEAE: Back pain” value (12 mg/m^2 (n = 11), Grade 3–4)?
A: 0 n (%)

Q: What about the “TEAE: Constipation” value (12 mg/m^2 (n = 11), Grade 3–4) of the same molecule?
A: 0 n (%)

Q: And the “TEAE: Cough” value (12 mg/m^2 (n = 11), Grade 3–4)?
A: 0 n (%)

Q: What about the “TEAE: Decreased appetite” value (12 mg/m^2 (n = 11), Grade 3–4) of the same molecule?
A: 0 n (%)

Q: What about the “TEAE: Dehydration” value (12 mg/m^2 (n = 11), Grade 3–4) of the same molecule?
A: 0 n (%)

Q: And the “TEAE: Diarrhea” value (12 mg/m^2 (n = 11), Grade 3–4)?
A: 0 n (%)

Q: And the “TEAE: Dizziness” value (12 mg/m^2 (n = 11), Grade 3–4)?
A: 0 n (%)

Q: And the “TEAE: Dyspnea” value (12 mg/m^2 (n = 11), Grade 3–4)?
A: 0 n (%)

Q: What about the “TEAE: Fatigue” value (12 mg/m^2 (n = 11), Grade 3–4) of the same molecule?
A: 0 n (%)

Q: What about the “TEAE: Flatulence” value (12 mg/m^2 (n = 11), Grade 3–4) of the same molecule?
A: 0 n (%)

Q: What about the “TEAE: Hyperbilirubinemia” value (12 mg/m^2 (n = 11), Grade 3–4) of the same molecule?
A: 1(9) n (%)

Q: And the “TEAE: Hyperglycemia” value (12 mg/m^2 (n = 11), Grade 3–4)?
A: 2 (18) n (%)

Q: And the “TEAE: Hyperuricemia” value (12 mg/m^2 (n = 11), Grade 3–4)?
A: 2 (18) n (%)

Q: And the “TEAE: Hypokalemia” value (12 mg/m^2 (n = 11), Grade 3–4)?
A: 1 (9) n (%)

Q: And the “TEAE: Hypophosphatemia” value (12 mg/m^2 (n = 11), Grade 3–4)?
A: 2 (18) n (%)

Q: And the “TEAE: Increased ALP” value (12 mg/m^2 (n = 11), Grade 3–4)?
A: 0 n (%)

Q: What about the “TEAE: Increased ALT” value (12 mg/m^2 (n = 11), Grade 3–4) of the same molecule?
A: 0 n (%)

Q: What about the “TEAE: Increased AST” value (12 mg/m^2 (n = 11), Grade 3–4) of the same molecule?
A: 1 (9) n (%)

Q: And the “TEAE: Nausea” value (12 mg/m^2 (n = 11), Grade 3–4)?
A: 0 n (%)

Q: What about the “TEAE: Neutropenia” value (12 mg/m^2 (n = 11), Grade 3–4) of the same molecule?
A: 2 (18) n (%)

Q: And the “TEAE: Peripheral edema” value (12 mg/m^2 (n = 11), Grade 3–4)?
A: 0 n (%)

Q: And the “TEAE: Pyrexia” value (12 mg/m^2 (n = 11), Grade 3–4)?
A: 0 n (%)

Q: And the “TEAE: Subjects with any AE” value (12 mg/m^2 (n = 11), Grade 3–4)?
A: 8 (73) n (%)

Q: And the “TEAE: Urinary tract infection” value (12 mg/m^2 (n = 11), Grade 3–4)?
A: 0 n (%)

Q: And the “TEAE: Vomiting” value (12 mg/m^2 (n = 11), Grade 3–4)?
A: 0 n (%)

Q: And the “TEAE: Weight decreased” value (12 mg/m^2 (n = 11), Grade 3–4)?
A: 0 n (%)

Q: What about the “TEAE: Abdominal distension” value (14 mg/m^2 (n = 5), All grades) of the same molecule?
A: 0 n (%)

Q: What about the “TEAE: Abdominal pain” value (14 mg/m^2 (n = 5), All grades) of the same molecule?
A: 0 n (%)

Q: What about the “TEAE: Anemia” value (14 mg/m^2 (n = 5), All grades) of the same molecule?
A: 2 (40) n (%)

Q: What about the “TEAE: Asthenia” value (14 mg/m^2 (n = 5), All grades) of the same molecule?
A: 1 (20) n (%)

Q: What about the “TEAE: Back pain” value (14 mg/m^2 (n = 5), All grades) of the same molecule?
A: 1 (20) n (%)

Q: And the “TEAE: Constipation” value (14 mg/m^2 (n = 5), All grades)?
A: 1 (20) n (%)

Q: And the “TEAE: Cough” value (14 mg/m^2 (n = 5), All grades)?
A: 0 n (%)

Q: What about the “TEAE: Decreased appetite” value (14 mg/m^2 (n = 5), All grades) of the same molecule?
A: 1 (20) n (%)

Q: What about the “TEAE: Dehydration” value (14 mg/m^2 (n = 5), All grades) of the same molecule?
A: 3 (60) n (%)

Q: And the “TEAE: Diarrhea” value (14 mg/m^2 (n = 5), All grades)?
A: 0 n (%)

Q: What about the “TEAE: Dizziness” value (14 mg/m^2 (n = 5), All grades) of the same molecule?
A: 1 (20) n (%)

Q: And the “TEAE: Dyspnea” value (14 mg/m^2 (n = 5), All grades)?
A: 1 (20) n (%)

Q: And the “TEAE: Fatigue” value (14 mg/m^2 (n = 5), All grades)?
A: 0 n (%)

Q: And the “TEAE: Flatulence” value (14 mg/m^2 (n = 5), All grades)?
A: 0 n (%)

Q: And the “TEAE: Hyperbilirubinemia” value (14 mg/m^2 (n = 5), All grades)?
A: 2 (40) n (%)

Q: And the “TEAE: Hyperglycemia” value (14 mg/m^2 (n = 5), All grades)?
A: 1 (20) n (%)

Q: What about the “TEAE: Hyperuricemia” value (14 mg/m^2 (n = 5), All grades) of the same molecule?
A: 1 (20) n (%)

Q: And the “TEAE: Hypokalemia” value (14 mg/m^2 (n = 5), All grades)?
A: 0 n (%)

Q: What about the “TEAE: Hypophosphatemia” value (14 mg/m^2 (n = 5), All grades) of the same molecule?
A: 0 n (%)

Q: What about the “TEAE: Increased ALP” value (14 mg/m^2 (n = 5), All grades) of the same molecule?
A: 1 (20) n (%)

Q: And the “TEAE: Increased ALT” value (14 mg/m^2 (n = 5), All grades)?
A: 0 n (%)

Q: And the “TEAE: Increased AST” value (14 mg/m^2 (n = 5), All grades)?
A: 1 (20) n (%)

Q: What about the “TEAE: Nausea” value (14 mg/m^2 (n = 5), All grades) of the same molecule?
A: 4 (80) n (%)

Q: And the “TEAE: Neutropenia” value (14 mg/m^2 (n = 5), All grades)?
A: 3 (60) n (%)

Q: What about the “TEAE: Peripheral edema” value (14 mg/m^2 (n = 5), All grades) of the same molecule?
A: 0 n (%)

Q: And the “TEAE: Pyrexia” value (14 mg/m^2 (n = 5), All grades)?
A: 0 n (%)

Q: What about the “TEAE: Subjects with any AE” value (14 mg/m^2 (n = 5), All grades) of the same molecule?
A: 5 (100) n (%)

Q: And the “TEAE: Urinary tract infection” value (14 mg/m^2 (n = 5), All grades)?
A: 0 n (%)

Q: What about the “TEAE: Vomiting” value (14 mg/m^2 (n = 5), All grades) of the same molecule?
A: 2 (40) n (%)

Q: What about the “TEAE: Weight decreased” value (14 mg/m^2 (n = 5), All grades) of the same molecule?
A: 0 n (%)
